Test results taken from patent publication US8518876B2, “Composition for long-acting peptide analogs” (Pharmaln Corporation, priority 2007, dated 2013).
Where a SMILES comes first, the peptide text is derived from it. Bridges are numbered along the chain shown (N, C = ends). The star is where a group is joined. Lauroyl = CCCCCCCCCCCC(=O)*

Assay: Binding of C12TerA to hydrophobic polymeric carrier (Scatchard plot, bound/free by HPLC)
Conditions: carrier 2.5 mg/tube, PBS, incubated overnight; estimated, plot not completely linear
Excerpt: FIG. 17: This figure is a Scatchard plot showing the binding of C12TerA to polymeric carrier containing a hydrophobic group disclosed in U.S. patent application Ser. No. 11/613,183, which is hereby incorporated by reference. The carrier also referred to as PGC-HC18 or 20PLPEG555-C18 is made up of polylysine of 15-30 kDa where 55% of the amino group is covalently modified to contain 5 kDa methoxypolyethylene glycol attached by through succinate linker and the remaining 45% of the amino group is amide bonded to stearic acid carboxyl group all disclosed in U.S. patent application Ser. No. 11/613,183. […] The filtrate containing […] C12TerA was quantified by HPLC. […] It should be noted that some C12TerA can form micelle and may be counted as bound due to the analytical techniques used.
FIG. 17 is a Scatchard plot showing the binding of C12TerA to polymeric carrier containing a hydrophobic group disclosed in U.S. patent application Ser. No. 11/613,183, which is hereby incorporated by reference. […] The filtrate containing […] C12TerA was quantified by HPLC. […] It should be noted that some C12TerA can form micelle and may be counted as bound due to the analytical techniques used.
The amount of C12TerA capable of being bound to a carrier was determined by varying the amount of the analog in the presence of 10 mg/ml hydrophobic group containing carrier PGC-HC18 or 20PLPEG555-C18. […]

SMILES: CCCCCCCCCCCC(=O)NCC(=O)NCC(=O)NCC(=O)N[C@H]1CSSC[C@@H](C(=O)N2CCC[C@H]2C(=O)N[C@@H](CCCCN)C(=O)NCC(N)=O)NC(=O)[C@H](CC(N)=O)NC(=O)[C@H](CCC(N)=O)NC(=O)[C@H](Cc2ccccc2)NC(=O)[C@H](Cc2ccc(O)cc2)NC1=O [C12TerA, CH3(CH2)10CO-Gly-Gly-Gly-Cys-Tyr-Phe-Gln-Asn-Cys-Pro-Lys-Gly-NH2] (Lauroyl-GGGCYFQNCPKG-NH2; disulfide 4-9)
- Kd: 1 to 5 µM
